In ChEMBL document CHEMBL2203267, “Synthesis, antioxidant and antimicrobial activity of novel vanillin derived piperidin-4-one oxime esters: preponderant role of the phenyl ester substituents on the piperidin-4-one oxime core” (Bioorg Med Chem Lett, 2012):

How the values were obtained:
[1] = system: Candida albicans; test: Antifungal activity against Candida albicans MTCC 3017 at 500 ug/mL after 72 hrs by well plate method; type: functional; conditions: MTCC 3017, 72 h, read-out: DIZ
[2] = system: Candida albicans; test: Antifungal activity against Candida albicans MTCC 3017 at 1000 ug/mL after 72 hrs by well plate method; type: functional; conditions: MTCC 3017, 72 h, read-out: DIZ
[3] = Antifungal activity against Chrysosporium keratinophilum MTCC 2827 at 500 ug/mL after 72 hrs by well plate method; type: functional
[4] = Antifungal activity against Chrysosporium keratinophilum MTCC 2827 at 1000 ug/mL after 72 hrs by well plate method; type: functional
[5] = system: Aspergillus flavus; test: Antifungal activity against Aspergillus flavus MTCC 3306 at 500 ug/mL after 72 hrs by well plate method; type: functional; conditions: MTCC 3306, 72 h, read-out: DIZ
[6] = system: Aspergillus flavus; test: Antifungal activity against Aspergillus flavus MTCC 3306 at 1000 ug/mL after 72 hrs by well plate method; type: functional; conditions: MTCC 3306, 72 h, read-out: DIZ
[7] = system: Pseudomonas aeruginosa; test: Antibacterial activity against Pseudomonas aeruginosa ATCC 27853 at 1000 ug/mL after 24 hrs by well plate method; type: functional; conditions: ATCC 27853, 24 h, read-out: DIZ
[8] = system: Staphylococcus aureus; test: Antibacterial activity against Staphylococcus aureus ATCC 25923 at 500 ug/mL after 24 hrs by well plate method; type: functional; conditions: ATCC 25923, 24 h, read-out: DIZ
[9] = system: Staphylococcus aureus; test: Antibacterial activity against Staphylococcus aureus ATCC 25923 at 1000 ug/mL after 24 hrs by well plate method; type: functional; conditions: ATCC 25923, 24 h, read-out: DIZ
[10] = system: Escherichia coli; test: Antibacterial activity against Escherichia coli ATCC 25922 at 500 ug/mL after 24 hrs by well plate method; type: functional; conditions: ATCC 25922, 24 h, read-out: DIZ
[11] = system: Escherichia coli; test: Antibacterial activity against Escherichia coli ATCC 25922 at 1000 ug/mL after 24 hrs by well plate method; type: functional; conditions: ATCC 25922, 24 h, read-out: DIZ
[12] = Antioxidant activity assessed as ABTS+ radical scavenging activity after 30 mins by UV-vis spectrophotometric analysis; type: functional
[13] = system: Liver microsomes; test: Antioxidant activity in Wistar rat liver microsomes assessed as inhibition of lipid peroxidation after 60 mins by UV-vis spectrophotometric analysis; type: functional, Microsome
[14] = system: Radical scavenging activity; test: Antioxidant activity assessed as DPPH radical scavenging activity after 20 mins by UV-vis spectrophotometric analysis; type: functional
[15] = system: Pseudomonas aeruginosa; test: Antibacterial activity against Pseudomonas aeruginosa ATCC 27853 at 500 ug/mL after 24 hrs by well plate method; type: functional; conditions: ATCC 27853, 24 h, read-out: DIZ

Structure (SMILES)	zone of inhibition at 500 µg/mL [1]	zone of inhibition at 1000 µg/mL [2]	inhibition zone (IZ) [3]	inhibition zone (IZ) [4]	zone of inhibition at 500 µg/mL [5]	zone of inhibition at 1000 µg/mL [6]	zone of inhibition at 1000 µg/mL [7]	zone of inhibition at 500 µg/mL [8]	zone of inhibition at 1000 µg/mL [9]	zone of inhibition at 500 µg/mL [10]	zone of inhibition at 1000 µg/mL [11]	IC50 [12]	IC50 [13]	IC50 [14]	zone of inhibition at 500 µg/mL [15]
OC(Cn1cncn1)(Cn1cncn1)c1ccc(F)cc1F [FLUCONAZOLE]	20 mm	22 mm	16 mm	17 mm	12 mm	14 mm	–	–	–	–	–	–	–	–	–
COc1cc(C2CC(=NOC(=O)c3cc(O)cc(O)c3)CC(c3ccc(O)c(OC)c3)N2C)ccc1O (configuration not stated)	3 mm	3 mm	2 mm	1 mm	1 mm	2 mm	5 mm	5 mm	5 mm	5 mm	4 mm	12.3 µM	17.2 µM	10.8 µM	4 mm
COc1cc(C2CC(=NOC(=O)c3ccc(O)cc3)CC(c3ccc(O)c(OC)c3)N2C)ccc1O (configuration not stated)	2 mm	2 mm	2 mm	3 mm	12 mm	1 mm	3 mm	4 mm	6 mm	4 mm	5 mm	15.1 µM	22.5 µM	14.2 µM	2 mm
COc1cc(C2CC(=NOC(=O)c3cc(OC)c(OC)c(OC)c3)CC(c3ccc(O)c(OC)c3)N2C)ccc1O (configuration not stated)	3 mm	3 mm	3 mm	6 mm	4 mm	3 mm	5 mm	4 mm	6 mm	4 mm	5 mm	53 µM	61 µM	40 µM	3 mm
COc1cc(C2CC(=NOC(=O)c3ccc(Br)cc3)CC(c3ccc(O)c(OC)c3)N2C)ccc1O (configuration not stated)	8 mm	9 mm	5 mm	7 mm	5 mm	6 mm	9 mm	7 mm	9 mm	7 mm	11 mm	108 µM	112 µM	103 µM	7 mm
COc1cc(C2CC(=NOC(=O)c3ccc(F)cc3)CC(c3ccc(O)c(OC)c3)N2C)ccc1O (configuration not stated)	18 mm	20 mm	14 mm	12 mm	13 mm	17 mm	16 mm	13 mm	15 mm	13 mm	18 mm	141 µM	140 µM	133 µM	13 mm
COc1cc(C2CC(=NOC(=O)c3cccc(O)c3)CC(c3ccc(O)c(OC)c3)N2C)ccc1O (configuration not stated)	1 mm	3 mm	1 mm	2 mm	1 mm	2 mm	5 mm	5 mm	7 mm	6 mm	7 mm	16.5 µM	25.3 µM	15.6 µM	3 mm
COc1cc(C2CC(=NOC(=O)c3ccccc3O)CC(c3ccc(O)c(OC)c3)N2C)ccc1O (configuration not stated)	2 mm	6 mm	4 mm	6 mm	3 mm	4 mm	4 mm	5 mm	5 mm	4 mm	6 mm	15.9 µM	24.1 µM	14.8 µM	3 mm
COc1ccc(C(=O)ON=C2CC(c3ccc(O)c(OC)c3)N(C)C(c3ccc(O)c(OC)c3)C2)cc1 (configuration not stated)	5 mm	7 mm	4 mm	4 mm	5 mm	6 mm	4 mm	2 mm	4 mm	2 mm	3 mm	33 µM	40 µM	28 µM	3 mm
COc1ccc(C(=O)ON=C2CC(c3ccc(O)c(OC)c3)N(C)C(c3ccc(O)c(OC)c3)C2)c(OC)c1 (configuration not stated)	4 mm	6 mm	4 mm	5 mm	4 mm	5 mm	6 mm	3 mm	5 mm	4 mm	6 mm	41 µM	52 µM	32 µM	6 mm
COc1cc(C2CC(=NOC(=O)c3ccc(Cl)cc3)CC(c3ccc(O)c(OC)c3)N2C)ccc1O (configuration not stated)	16 mm	19 mm	12 mm	10 mm	12 mm	15 mm	15 mm	9 mm	13 mm	12 mm	17 mm	112 µM	121 µM	110 µM	12 mm
COc1cc(C2CC(=NOC(=O)c3ccccc3)CC(c3ccc(O)c(OC)c3)N2C)ccc1O (configuration not stated)	2 mm	3 mm	2 mm	3 mm	1 mm	2 mm	2 mm	3 mm	4 mm	2 mm	3 mm	156 µM	165 µM	141 µM	1 mm
CN[C@@H]1[C@H](O[C@H]2[C@H](O[C@H]3[C@H](O)[C@@H](O)[C@H](N=C(N)N)[C@@H](O)[C@@H]3N=C(N)N)O[C@@H](C)[C@]2(O)C=O)O[C@@H](CO)[C@H](O)[C@H]1O [STREPTOMYCIN]	–	–	–	–	–	–	16 mm	12 mm	15 mm	12 mm	18 mm	–	–	–	13 mm
COc1cc(C2CC(=NO)CC(c3ccc(O)c(OC)c3)N2C)ccc1O (configuration not stated)	0 mm	1 mm	1 mm	1 mm	0 mm	1 mm	1 mm	0 mm	1 mm	0 mm	1 mm	158 µM	167 µM	144 µM	0 mm
COc1cc(C2CC(=NOC(=O)c3ccc([N+](=O)[O-])cc3)CC(c3ccc(O)c(OC)c3)N2C)ccc1O (configuration not stated)	7 mm	6 mm	4 mm	5 mm	3 mm	4 mm	8 mm	5 mm	8 mm	4 mm	8 mm	79 µM	82 µM	76 µM	5 mm
COc1cc(C2CC(=NOC(=O)c3cc(O)c(O)c(O)c3)CC(c3ccc(O)c(OC)c3)N2C)ccc1O (configuration not stated)	6 mm	8 mm	3 mm	4 mm	2 mm	4 mm	4 mm	4 mm	6 mm	5 mm	7 mm	11.8 µM	16.1 µM	10 µM	3 mm
